Where a name gives a salt, the structure may show the parent alone.

In one test the test system is ATGL-KO iPSCs. Put plainly: High throughput iPSC chemical screening, Oil Red O (ORO) lipid accumulation. As to Z-score: test concentration or dose not given here. The test is classed as cell-based, mouse.
Conditions: not given
In turn, Cytisine (−) came in with a Z-score of 1.049.

The same test, now with this note: glycolytic switch compounds.
In the case of `O=C1NCN(c2ccccc2)C12CCN(CCCC(c1ccc(F)cc1)c1ccc(F)cc1)CC2` [Fluspirilen, reference compound], the “Rank in normalized ORO score from screen” value worked out at 40.

Still in this test, the particulars now being: normalized ORO level vs DMSO-treated cells; compound present during 7 days differentiation, 96-well; negative = decrease in lipid accumulation.
Take `CN1CCCN(C(c2ccccc2)c2ccc(Cl)cc2)CC1` (stereo not drawn) [Homochlorcyclizine dihydrochloride]: the Z-score was −0.8178.

In turn, `c1ccc(CC2=NCCN2)cc1` [Tolazoline hydrochloride] displayed a Z-score of 0.3256.

Turning to `O=c1[nH]c(=O)n([C@H]2C[C@H](O)[C@@H](CO)O2)cc1C(F)(F)F` [Trifluridine], the Z-score came to 21.7513.

As to `O=C(O)c1cc(=O)c2c(OCC(O)COc3cccc4oc(C(=O)O)cc(=O)c34)cccc2o1` [Cromolyn disodium salt], the Z-score is on record as −1.7273.

`Cn1c(-c2ccc3c(c2)OCO3)cc(=O)c2ccccc21` [Graveoline] registered a Z-score of −1.0242.

`Cc1cc(N)c2ccccc2[n+]1CCCCCCCCCC[n+]1c(C)cc(N)c2ccccc21` [Dequalinium dichloride] came in with a Z-score of 42.6725.

The molecule `C[C@H]1[C@H](C)CC[C@]2(C(=O)O)CC[C@]3(C)C(=CC[C@@H]4[C@@]5(C)CC[C@H](O)C(C)(C)[C@@H]5CC[C@]43C)[C@H]12` [Ursolic acid] yielded a Z-score of −0.1541.

Turning to `O=C1NCN(c2ccccc2)C12CCN(CCCC(c1ccc(F)cc1)c1ccc(F)cc1)CC2` [Fluspirilen, reference compound], the Z-score was −1.6301.

For the molecule `CC1=C(C(=O)O)N2C(=O)[C@@H](NC(=O)[C@H](N)c3ccc(O)cc3)[C@H]2SC1` [Cefadroxil], the Z-score is recorded as −0.5419.

`Cc1onc(-c2c(Cl)cccc2Cl)c1C(=O)N[C@@H]1C(=O)N2[C@@H]1SC(C)(C)[C@@H]2C(=O)O` [Dicloxacillin sodium salt] returned a Z-score of −0.1893.

Molecule `CC(C)NCC(O)c1ccc2ccccc2c1` (stereo not drawn) [Pronethalol hydrochloride] displayed a Z-score of −0.9002.

The molecule `C[C@]12CC[C@@H]3c4ccc(O)cc4CC[C@H]3[C@@H]1CCC2=O` [Estrone] yielded a Z-score of −1.8166.

(−)-Quinpirole hydrochloride came in with a Z-score of 1.311.

On to `CC[C@@H]1C(=O)OC[C@@H]1Cc1cncn1C` [Pilocarpine nitrate], for which the Z-score is given as −0.2819.

`COC(=O)[C@@H]1[C@H]2C[C@H]3c4[nH]c5ccccc5c4CCN3C[C@@H]2CC[C@@H]1O` [Yohimbine hydrochloride] displayed a Z-score of −1.0356.

As for `CC(Cc1cccc(C(F)(F)F)c1)NCCOC(=O)c1ccccc1` (stereo not drawn) [Benfluorex hydrochloride], the Z-score is recorded as −1.1069.

`OCCN1CCN(CCCN2c3ccccc3Sc3ccc(C(F)(F)F)cc32)CC1` [Fluphenazine dihydrochloride]: the Z-score was determined as 0.4317.

Regarding `CC(C)C[C@H]1C(=O)N2CCC[C@H]2[C@]2(O)O[C@](NC(=O)[C@@H]3C=C4c5cccc6[nH]cc(c56)C[C@H]4N(C)C3)(C(C)C)C(=O)N12` [Ergocryptine-alpha], the Z-score is reported as −0.2816.

On to `CC[C@@]1(O)C(=O)OCc2c1cc1n(c2=O)Cc2cc3ccccc3nc2-1` [Camptothecine (S,+)], for which the Z-score stood at 21.8871.

On to `COc1ccc(CC2c3cc(OC)c(OC)cc3CCN2C)cc1OC` (racemic) [Laudanosine (R,S)], for which the Z-score is reported as −0.5493.

With `CCCCc1cc2ccccc2c(OCCN(C)C)n1` [Dimethisoquin hydrochloride], the Z-score amounted to 0.4631.

The molecule `CCN1CCN(C(=O)N[C@@H](C(=O)N[C@@H]2C(=O)N3C(C(=O)O)=C(CSc4nnnn4C)CS[C@H]23)c2ccc(O)cc2)C(=O)C1=O` [Cefoperazone dihydrate] displayed a Z-score of 0.4847.

In turn, `CCNCC(O)c1cccc(O)c1` (stereo not drawn) [Etilefrine hydrochloride] displayed a Z-score of 0.1398.

In turn, `CC(Oc1ccccc1)C(=O)N[C@@H]1C(=O)N2[C@@H]1SC(C)(C)[C@@H]2C(=O)O` (stereo partly drawn) [Phenethicillin potassium salt] came in with a Z-score of −0.0851.

Take `[H]/N=C(/N)N[C@H]1[C@H](O)[C@@H](O)[C@H](O[C@@H]2O[C@@H](C)[C@](O)(C=O)[C@H]2O[C@@H]2O[C@@H](CO)[C@H](O)[C@@H](O)[C@@H]2NC)[C@@H](N/C(N)=N\[H])[C@@H]1O` [Streptomycin sulfate]: the Z-score came to 1.417.

Molecule `O=C(O)c1cc(/N=N/c2ccc(S(=O)(=O)Nc3ccccn3)cc2)ccc1O` [Sulfasalazine] had a Z-score of −1.0569.

`CCCCN1CCCCC1C(=O)Nc1c(C)cccc1C` (stereo not drawn) [Bupivacaine hydrochloride] showed a Z-score of 0.0187.

In turn, `CNC[C@H](O)[C@@H](O)[C@H](O)[C@H](O)CO` [Meglumine] came in with a Z-score of −1.1536.

With `CC(CNC1CCCCC1)OC(=O)c1ccccc1` (stereo not drawn) [Hexylcaine hydrochloride], the Z-score came out at 0.687.

`CCCCCCCCNC(C)C(O)c1ccc(SC(C)C)cc1` (stereo not drawn) [Suloctidil] came in with a Z-score of 21.8147.

`CC[C@H]1CN2CC[C@H]1C[C@H]2[C@H](O)c1ccnc2ccc(OC)cc12` [Hydroquinine hydrobromide hydrate] returned a Z-score of 1.2243.

As to `COc1ccccc1N1CCN(CCCNc2cc(=O)n(C)c(=O)n2C)CC1` [Urapidil hydrochloride], the Z-score is −1.2828.

As for `CC1(C)O[C@@H]2C[C@H]3[C@@H]4C[C@H](F)C5=CC(=O)C=C[C@]5(C)[C@H]4[C@@H](O)C[C@]3(C)[C@]2(C(=O)CO)O1` [Flunisolide], the Z-score worked out at 0.2241.

`CCC1NC(=O)c2cc(S(N)(=O)=O)c(Cl)cc2N1` (stereo not drawn) [Quinethazone] had a Z-score of −0.4993.

For the molecule `COc1ccn(C)c(=O)c1C#N` [Ricinine], the Z-score is −1.4299.

On to `CC(=O)SCC(Cc1ccccc1)C(=O)NCC(=O)OCc1ccccc1` (stereo not drawn) [Racecadotril], for which the Z-score was determined as 0.516.

As for `COc1cc2c(c(OC)c1OC)-c1ccc(O)c(=O)cc1C(N)CC2` (stereo not drawn) [Trimethylcolchicinic acid], the Z-score was found to be 0.4127.

Consider `O.O.O=c1c(O)c(-c2ccc(O)c(O)c2)oc2cc(O)cc(O)c12` [Quercetine dihydrate], for which the Z-score is recorded as −0.8659.

In turn, `NNCCc1ccccc1` [Phenelzine sulfate] showed a Z-score of 0.6672.

For the molecule `O=c1n(CCCN2CCN(c3cccc(Cl)c3)CC2)nc2ccccn12` [Trazodone hydrochloride], the Z-score was 0.03974.

Molecule `Cc1cc2c(cc1S(N)(=O)=O)S(=O)(=O)CCC2` [Meticrane] yielded a Z-score of −0.0455.

Molecule `CC(N)CCCC(C)(C)O` (stereo not drawn) [Heptaminol hydrochloride] returned a Z-score of −0.2987.

Turning to `CCCNC(C)(C)COC(=O)c1ccccc1` [Meprylcaine hydrochloride], the Z-score is reported as −0.9597.

In turn, `NC(=O)CN1CCCC1=O` [Piracetam] had a Z-score of 0.8038.

Molecule `CO/N=C(\C(=O)N[C@@H]1C(=O)N2C(C(=O)O)=C(COC(N)=O)CS[C@H]12)c1ccco1` [Cefuroxime sodium salt] yielded a Z-score of 0.8177.

Molecule `COCCCC/C(=N\OCCN)c1ccc(C(F)(F)F)cc1` [Fluvoxamine maleate] showed a Z-score of −1.2293.

For the molecule `CC(N/C(=N\C#N)Nc1ccncc1)C(C)(C)C` (stereo not drawn) [Pinacidil], the Z-score was 0.3162.

With `O=C(c1ccccc1)c1ccc2n1CCC2C(=O)O` (stereo not drawn) [Ketorolac tromethamine], the Z-score is listed as −0.8373.

`CNCCCN1c2ccccc2CCc2ccccc21` [Desipramine hydrochloride] yielded a Z-score of 0.2168.

As to `C[C@H]1C(=O)O[C@@H]2CCN3CC=C(COC(=O)[C@](C)(O)[C@]1(C)O)[C@H]23` [Monocrotaline], the Z-score is reported as −1.7819.

For `CN1[C@@H]2CC[C@H]1C[C@@H](O)C2` [Tropine], the Z-score is recorded as −0.2952.

With `CNC(=O)c1c(I)c(C(=O)NCC(=O)Nc2c(I)c(C(=O)O)c(I)c(C(=O)NCCO)c2I)c(I)c(N(C)C(C)=O)c1I` [Ioxaglic acid], the Z-score is recorded as −0.54.

`CCN1C[C@]2(COC)CC[C@H](O)[C@]34C1[C@@](O)([C@@H](OC)[C@H]23)[C@@]1(O)C[C@H](OC)[C@H]2C[C@@H]4[C@@H]1[C@H]2OC` [Delsoline] registered a Z-score of −1.3301.

Turning to `COc1cnc(NS(=O)(=O)c2ccc(N)cc2)nc1` [Sulfameter], the Z-score is reported as −0.1501.

As for `NCC(CC(=O)O)c1ccc(Cl)cc1` (racemic) [Baclofen (R,S)], the Z-score is listed as 0.07861.

Turning to `C#C[C@]1(O)CC[C@H]2[C@@H]3CCC4=Cc5oncc5C[C@]4(C)[C@H]3CC[C@@]21C` [Danazol], the Z-score is −1.2973.

`O=C1CC2(CCCC2)CC(=O)N1CCCCN1CCN(c2ncccn2)CC1` [Buspirone hydrochloride] displayed a Z-score of −0.0845.

Molecule `CN(CCCCCCCCCCN(C)C(=O)Oc1cccc([N+](C)(C)C)c1)C(=O)Oc1cccc([N+](C)(C)C)c1` [Demecarium bromide] registered a Z-score of −0.6009.

Regarding `CN(C)[C@@H]1C(O)=C(C(N)=O)C(=O)[C@@]2(O)C(O)=C3C(=O)c4c(O)ccc(Cl)c4[C@@](C)(O)[C@H]3C[C@@H]12` [Chlortetracycline hydrochloride], the Z-score is listed as −0.5479.

In turn, `COC(=O)Nc1nc2ccc(C(=O)c3cccs3)cc2[nH]1` [Nocodazole] came in with a Z-score of 18.0445.

Consider `CCCN(CCC)C(=O)C(CCC(=O)O)NC(=O)c1ccccc1` (stereo not drawn) [Proglumide], for which the Z-score stood at 0.1235.

In turn, `Nc1ccc(S(N)(=O)=O)cc1` [Sulfanilamide] displayed a Z-score of 0.2959.

`C[C@H](N)[C@H](O)c1ccc(O)c(O)c1` [Levonordefrin]: the Z-score is listed as −0.1555.

In the case of `CN(C)CCC(c1ccc(Cl)cc1)c1ccccn1` (stereo not drawn) [Chlorpheniramine maleate], the Z-score was −0.5399.

Molecule `CCCCN(CCCC)CCC(O)c1cc2c(Cl)cc(Cl)cc2c2cc(C(F)(F)F)ccc12` (stereo not drawn) [Halofantrine hydrochloride] gave a Z-score of 1.459.

As for `C=C[C@H]1C[N@@]2CC[C@H]1C[C@@H]2[C@@H](O)c1ccnc2ccccc12` [Cinchonine], the Z-score is −1.1697.

In the case of `NC[C@H]1O[C@H](O[C@H]2[C@H](O)[C@@H](O[C@H]3O[C@H](CO)[C@@H](O)[C@H](N)[C@H]3O)[C@H](N)C[C@@H]2N)[C@H](O)[C@@H](O)[C@@H]1O.O=S(=O)(O)O` [Kanamycin A sulfate], the Z-score stood at 2.436.

These data come from US9393221B2, “Methods and compounds for reducing intracellular lipid storage” (THE GENERAL HOSPITAL CORPORATION, priority 2011, dated 2016).
